The record followed here is patent publication US4990613A, “(1R,5S,6S)-2-[(6,7-dih ydro-5H-pyrazolo[1,2-a][1,2,4]triazolium-6-yl)]thio-6-[R-1-hydroxyethyl]- 1-methyl-carbapenem-3-carboxylate and intermediate therefor” (Lederle (Japan), Ltd., priority 1987, dated 1991).

For this test, the system named is P. aeruginosa resistant strains. Description: Sensitivity test against clinical isolates, P. aeruginosa resistant strains. Type of test: cell-based. As to conditions: 54 resistant strains. On the procedure: It is noted here that the 54 strains have been chosen because there have been the strains in duplicate with the agents. ______________________________________ Ceftazidime (CAZ) (25 to 100 μg/ml) 21 strains Cefsulodine (CFS) (25 to >100 μg/ml) 23 strains Piperacilin (PIPC) (25 to >100 μg/ml) 15 strains Gentamycin (GM) (25 to >100 μg/ml) 21 strains Amikacin (AMK) (25 to >100 μg/ml) 26 strains Ofloxacin (OFLX) (25 to >100 μg/ml) 4 strains ______________________________________
A minimum inhibitory concentration (MIC) was determined in substantially the same manner as the test procedures II above using the 54 strains of P. aeruginosa having an anti-Pseudomonas resistance.

On to `C[C@@H](O)[C@H]1C(=O)N2C(C(=O)O)=C(SCCN=CN)C[C@H]12` [Imipenem], for which the “test microorganisms whose growth is inhibited” value is on record as “all the test microorganism” (concentration of 12.5 μg/ml) and “approximately 98%” (concentration of […]).
